Marks after values point to notes of the source that are not given here.
Tests used:
[1] = tested on: patients with rheumatoid arthritis; details: cited from earlier work
[2] = tested on: rheumatoid arthritis (Ra) and Psoriatic arthritis (PsA) patients; assay: Study of Example 1 continued to 18 months (Example 2); assay type: in vivo, human
Source text: The study of Example 1 was continued to 18 months. […] Fibromyalgia was a surrogate for a lack of deep (e.g., stage IV) restorative sleep.
JC refers to the number of swollen tender joints.

[3] = tested on: patients with Ankylosing Spondylitis; assay: Treatment of patients with Ankylosing Spondylitis; assay type: in vivo, human; details: six patients after lorazepam or pramipexole, off Methotrexate and steroids
Method: Six patients with Ankylosing Spondylitis were treated according to the present invention. […] The patients were administered lorazepam 1-2 mg qhs or pramipexole 0.5-3.0 mg qhs.

[4] = tested on: rheumatoid arthritis (Ra) and Psoriatic arthritis (PsA) patients; assay: Open-label retrospective chart analysis of patients starting Etanercept, with sleep/fibromyalgia treatment (Example 1); assay type: in vivo, human
Source text: The effect of sleep disturbance and/or overt fibromyalgia (FM) on Etanercept (ENBREL®, Immunex) efficacy was monitored in an open-label, retrospective chart analysis of rheumatoid arthritis (Ra) and Psoriatic arthritis (PsA) patients starting Etanercept due to inadequate response to prior disease-modifying and steroid treatment. Sixty six (66) consecutive patients (19 males, 47 Females; 39 positive for rheumatoid factor for rheumatoid arthritis, 13 negative for rheumatoid factor for rheumatoid arthritis, 14 having PsA) were treated at a suburban, referral-based rheumatology clinic. The patients were monitored for swollen/tender joints (joint count, JC), fibromyalgia tender point score, restorative sleep quality, and concomitant medication use, before and after adding Etanercept treatment. Concomitant medication use included prednisone, methotrexate, non-steroidal anti-inflammatory drugs (NSAIDS), azothioprine, sulfasalazine, and hydroxychloroquine.
All patients with overt FM and non-restorative sleep were treated with options for fibromyalgia (FM), including Trazodone, Lorazepam, Clonazepam, Carisoprodol, and/or Pramipexole as needed to decrease FM pain and sleep disturbance as previously reported. (Arthritis & Rheumatology 43:9 A1599 (2000); Arthritis & Rheumatology 42:9 A385 (1999); Arthritis & Rheumatology 41:9 A1359 (1998).)
The patient criteria were as follows: The mean arthritis duration was 9.2±1.3 years. Etanercept use was 14±1.5 months. The average age of the patients was 50.5±4.3 years. Their average initial erythrocyte sedimentation rate (ESR) was 22.0±8.0. Previous DMARDs 2.4±0.3. Their initial Joint Count was as follows: PsA 8.3, Ra-8.1, and Ra+13.2 The disease groups were combined: 20 patients had active FM (aFM). 29 never had FM (no FR).

[5] = tested on: patient with chronic gout; assay: Treatment of a patient with chronic gout and severe synovitis; assay type: in vivo, human; details: one patient; colchicine, hydroxychloroquine and Etanercept added together, before sleep agents
Method: Adding colchicine, hydroxychloroquine and Etanercept only allowed them to decrease prednisone to 15 mg qd.

Etanercept
Patients who may not respond [1]: 15-20%
MTX abs (absolute change of methotrexate use) ([2]; 18 months, Active FM (N 6)): (6) +0.8 mg
Pred abs (absolute change of steroid use) ([2]; 18 months, Active FM (N 9)): (9) −7.15 mg
Joint count abs (absolute change) ([2]; 18 months, Active FM (N 10)): (10) −10.95
MTX abs (absolute change of methotrexate use) ([2]; 18 months, Inactive FM (N 9)): (9) −20.1 mg
Pred abs (absolute change of steroid use) ([2]; 18 months, Inactive FM (N 13)): (13) −7.92 mg
Joint count abs (absolute change) ([2]; 18 months, Inactive FM (N 23)): (23) −8.98
MTX abs (absolute change of methotrexate use) ([2]; 18 months, No FM (N 16), p 0.0002 across groups): (16) −17.5 mg
Pred abs (absolute change of steroid use) ([2]; 18 months, No FM (N 19), p 0.8649 across groups): (19) −7.32 mg
Joint count abs (absolute change) ([2]; 18 months, No FM (N 28), p 0.5685 across groups): (28) −11.54
JC2, number of swollen tender joints, mean ([2]; patients converted from active FM to inactive FM, 12 months, study entry 9.1): 4.6 # tender joints
Pred2, Pred used, mean ([2]; patients converted from active FM to inactive FM, 12 months, study entry 10.5): 5.5 mg
MTX2, methotrexate used, mean ([2]; patients converted from active FM to inactive FM, 12 months, study entry 17.5): 0 mg
JC3, number of swollen tender joints, mean ([2]; patients converted from active FM to inactive FM, 18 months, study entry 9.1): 0 # tender joints
Pred3, Pred used, mean ([2]; patients converted from active FM to inactive FM, 18 months, study entry 10.5): 1.8 mg
MTX3, methotrexate used, mean ([2]; patients converted from active FM to inactive FM, 18 months, study entry 17.5): 0 mg
Disease activity under continued Etanercept [3]: without evidence of active disease
% Change Joint Count ([4]; No FM patients): −93.9 ± 1.9%
% Change Methotrexate Dose ([4]; No FM patients): −89.5 ± 8.4%
% Change Prednisone Dose ([4]; No FM patients): −96.3 ± 4.0%
Δ Pred., prednisone dose after adding Etanercept ([4]; No FM patients (29), before 8.0): 8.0 → 0.3 mg/d
Δ MTX, methotrexate dose after adding Etanercept ([4]; No FM patients (29), before 19.1): 19.1 → 2.0 mg/wk
Δ Joint Count, value after adding Etanercept ([4]; No FM patients (29), before Etanercept 11.6): 11.6 → 0.7
Medication Discontinued: Azathioprine/Sulfasalazine/Hydroxychloroquine (patients) ([4]; No FM patients, p 0.019 across groups): 10/11
Medication Discontinued: NSAIDs (patients) ([4]; No FM patients, p 0.045 across groups): 6/7
Δ Joint Count, value after adding Etanercept ([4]; aFM (active fibromyalgia) patients (20), before Etanercept 11.5, M-W P 0.066): 11.5 → 5.9 *
Medication Discontinued: Azathioprine/Sulfasalazine/Hydroxychloroquine (patients) ([4]; aFM patients): 4/8
Medication Discontinued: NSAIDs (patients) ([4]; aFM patients): 1/13
Δ Pred., prednisone dose after adding Etanercept ([4]; aFM patients (20), before 10.3, M-W P 0.1): 10.3 → 5.9 # mg/d
Δ MTX, methotrexate dose after adding Etanercept ([4]; aFM patients (20), before 15.0, M-W P 0.002): 15.0 → 13.3 ** mg/wk
% Change Joint Count ([4]; aFM patients, M-W P 0.001): −47.8 ± 14.%
% Change Prednisone Dose ([4]; aFM patients, M-W P 0.001): −48.5 ± 15.%
% Change Methotrexate Dose ([4]; aFM patients, M-W P < 0.001): −11.3 ± 4.5%
Δ Joint Count, value after adding Etanercept ([4]; iFM (inactive fibromyalgia) patients (17), before Etanercept 10.1): 10.1 → 0.5
% Change Joint Count ([4]; iFM patients): −95.0 ± 1.9%
% Change Methotrexate Dose ([4]; iFM patients): −100. ± 0.0%
% Change Prednisone Dose ([4]; iFM patients): −94.5 ± 3.6%
Medication Discontinued: Azathioprine/Sulfasalazine/Hydroxychloroquine (patients) ([4]; iFM patients): 9/9
Medication Discontinued: NSAIDs (patients) ([4]; iFM patients): 4/7
Δ Pred., prednisone dose after adding Etanercept ([4]; iFM patients (17), before 7.3): 7.3 → 0.4 mg/d
Δ MTX, methotrexate dose after adding Etanercept ([4]; iFM patients (17), before 19.7): 19.7 → 0.0 mg/wk
Prednisone dose reached [5]: 15 mg qd
